Experiment: xn = mol fraction of the nth substance listed
Settings: 100 kPa

CCCC[n+]1ccn(C)c1.[Br-] + O
viscosity [mPa·s]
Settings	x1 = 0.05	x1 = 0.0992	x1 = 0.1481	x1 = 0.1979	x1 = 0.2517	x1 = 0.3882
303.15 K	–	–	5.93	8.78	12	–
313.15 K	1.56	2.58	4.3	6.08	8.65	–
323.15 K	1.27	2.06	3.43	4.79	6.49	–
333.15 K	–	–	2.71	–	–	–
343.15 K	0.888	1.37	2.2	2.91	3.89	7.98

O + CCCC[n+]1ccn(C)c1.[Br-]
x2 = 0
Settings	viscosity [mPa·s]
313.15 K	0.684
323.15 K	0.58
333.15 K	0.492
343.15 K	0.429

O + CC[n+]1ccn(C)c1.[Br-]
x2 = 0
Settings	viscosity [mPa·s]
313.15 K	0.684
333.15 K	0.492

O + CCCn1cc[n+](C)c1.[Br-]
x2 = 0
Settings	viscosity [mPa·s]
303.15 K	0.834
313.15 K	0.684
323.15 K	0.58

CCCn1cc[n+](C)c1.[Br-] + O
viscosity [mPa·s]
Settings	303.15 K	313.15 K	323.15 K	333.15 K	343.15 K
x1 = 0.0497	1.67	1.31	–	0.899	0.767
x1 = 0.0992	3.1	2.39	1.9	1.55	1.29
x1 = 0.1984	7.88	5.81	4.46	3.53	2.81
x1 = 0.4005	–	19.6	13.9	10.2	7.82
x1 = 0.5756	87.4	52.6	34	23.2	16.7

CC[n+]1ccn(C)c1.[Br-] + O
viscosity [mPa·s]
Settings	x1 = 0.049	x1 = 0.0997	x1 = 0.1466	x1 = 0.1978	x1 = 0.2501	x1 = 0.3881	x1 = 0.543
303.15 K	–	2.42	3.55	–	6.71	13	28.2
313.15 K	1.14	1.9	2.72	4.1	5.07	9.59	19.4
323.15 K	0.944	1.57	2.21	3.27	3.99	7.31	14.3
333.15 K	–	1.3	1.85	2.66	3.21	5.76	11.1
343.15 K	0.688	1.12	1.53	2.2	2.65	4.59	8.6
